In patent US10342874B2, “Glucosamine peptide compounds for treating liver metabolic disorders” (Far Eastern Memorial Hospital, priority 2017, dated 2019):

Columns and labels:
[1] = test system: C57BL/6JNarl male mice fed with high fat diet; test: Fatty liver animal test: liver appearance and liver weight; type: in vivo; conditions: HFD mice, 2 mg/kg intraperitoneal, three times a week for two weeks; compared with Group 2 (HFD)
Method: (§1) 24 C57BL/6JNarl male mice at 5 weeks of age were purchased from the National Laboratory Animal Center and housed in the laboratory animal room of the Far Eastern Memorial Hospital at a constant temperature of 22° C., 55% humidity, automatic air regulation (ventilation rate of 12 times per hour), automatic light control (12:12 hour light/dark cycle), and provided with free access to water and chow diet D12450B (Research Diets, Inc.) for two weeks.
(§2) Then the 24 mice (7 weeks of age) were randomly divided into four groups, each containing six mice—Group 1 is the chow diet (CD) control group fed with chow diet D12450B; Group 2 is the high fat diet (HFD) group fed with high fat diet (i.e., modified D12492); Group 3 is the HFD+Compound A treatment group provided with high fat diet and Compound A; and Group 4 is the HFD+Compound B treatment group provided with high fat diet and Compound B.
(§3) Group 1 was fed with chow diet for 18 weeks, followed by 2 more weeks of chow diet, and then given an intraperitoneal injection of saline, without receiving Compound A or Compound B. Group 2, the HFD group, was fed with high fat diet for 18 weeks, followed by 2 more weeks of high fat diet, and then given an intraperitoneal injection of saline, without receiving Compound A or Compound B. Group 3, the HFD+Compound A treatment group, was fed with high fat diet for 18 weeks and then given an intraperitoneal injection of 2 mg/kg of Compound A per mouse, three times a week (once every one or two days) for two weeks, a total of six injections of Compound A. Group 4, the HFD+Compound B treatment group, was fed with high fat diet for 18 weeks and then given an intraperitoneal injection of 2 mg/kg of Compound B per mouse, three times a week (once every one or two days) for two weeks, a total of six injections of Compound B. After completion of feeding and treatment described above, the mice were weighed and euthanized with CO2, and their blood and liver tissue specimens were collected for analysis.

[2] = test system: C57BL/6JNarl male mice fed with high fat diet; test: Blood biochemistry of fatty liver mice; type: in vivo; conditions: HFD mice; for aspartate transaminase (AST) and alanine transaminase (ALT) compared with Group 2: 2 mg/kg, statement in words; for ALT / AST / GLU / T-CHO / TG: serum, 2 mg/kg intraperitoneal, six injections in two weeks, mean ± SD, six mice
Method: as §1, §2, §3
Blood samples from mice of each group in Example 4 were tested for measurement of serum aspartate transaminase (AST), alanine transaminase (ALT), total cholesterol (T-CHO), triglyceride (TG) and glucose (GLU). AST and ALT are common measures of liver function.

[3] = test system: C57BL/6JNarl male mice fed with high fat diet; test: Analysis of fat amount in liver tissue (H&E stain, Image J); type: in vivo; conditions: HFD mice; for percentage of area of lipid droplets relative to the total field of view in liver tissue: 2 mg/kg intraperitoneal, compared with Group 2 (HFD)
Method: as §1
as §2, with “B. […]” for “B.”
Image J was used to quantify the percentage of area of lipid droplets relative to the total field of view in mice liver tissues (FIG. 5E). […]

[4] = test system: C57BL/6JNarl male mice fed with high fat diet; test: Analysis of liver tissue fibrosis (Masson's Trichrome, collagen proportionate area); type: in vivo; conditions: HFD mice; for percentage of collagen proportionate area (CPA) in liver tissue: 2 mg/kg intraperitoneal, compared with Group 2 (HFD)
Method: as §1
as §2, with “B. […]” for “B.”
Nuance multispectral image analysis module (PerknElmer, Inc) was used to quantify the collagen proportionate area (CPA), as shown in FIG. 6E. […]

HepG2 cells = test: Oleic acid-induced in vitro fatty liver cell model, lipid droplets by Oil Red O staining quantified by Image J; type: cell-based, human; conditions: for lipid droplet accumulation: HepG2, 10 nM compound for 24 hours
Method: Human hepatocellular carcinoma cell line HepG2 was cultured in Dulbecco's modified Eagle's medium (DMEM, containing 4,500 mg/L D-glucose and L-glutamine) supplemented with 10% fetal bovine serum and 1% penicillin/streptomycin at 37° C. incubator with 5% CO2. To induce in vitro fatty liver cell model on HepG2 with oleic acid-bovine serum albumin complex (Sigma-Aldrich, USA), HepG2 cells were cultured in a 24-well plate at a cell volume of 8×10^4; after 18 to 24 hours when a 70% confluence of cell growth has reached, 0.1 mM of oleic acid was added for culturing for 24 hours. After the replacement of culture medium containing oleic acid, 0.5 μg/mL, 1 μg/mL, 2.5 μg/mL, 5 μg/mL and 10 μg/mL of Compound A were added to DMEM containing 2% fetal bovine serum for culturing for 8 hours; each experimental group performed four repetitions.
Oil Red O (ORO) staining was used to confirm the level of lipid droplets, e.g., amount of red particles, in HepG2. After 24 hours of oleic acid treatment, HepG2 cells were fixed with 4% paraformaldehyde for 15 minutes, followed by phosphate-buffered saline (PBS) washing for three times and then ORO staining for 1 hour. After staining, the cells were washed with PBS for three times, followed by hematoxylin staining for 5 minutes. The coverslip was reversely placed on the slide and sealed with glycerine for observation with optical microscope; images were taken and saved as electronic files.
Intracellular lipid droplets were quantified by Image J (National Institutes of Health, NIH) after adjustment to a proper threshold value. Images with at least 20 cells were analyzed and quantified by Image J with the “analyze particles” functions in threshold single sections with size (pixel^2) setting from 0.1 to 10.
(§4) Similar to Example 1, to induce in vitro fatty liver cell model on HepG2 with oleic acid, HepG2 cells were cultured in a 24-well plate at a cell volume of 8×10^4 and added with 0.1 mM of oleic acid for 24-hour culturing. After the replacement of culture medium containing oleic acid, 10 μg/mL of Compound A was added to DMEM for culturing for 4 hours, 8 hours, 16 hours, and 24 hours; each time point performed four repetitions. ORO staining was used to confirm the level of lipid droplets in HepG2, and their number and size were quantified by Image J.
Compound C, which is a derivative of Compound A, was also tested to further investigate the effect of glucosamine peptide compounds defined herein, including Compound A and its derivatives, on the formation of intracellular lipid droplets. Similar to Example 2, to induce in vitro fatty liver cell model on HepG2 with oleic acid, HepG2 cells were cultured in a 24-well plate at a cell volume of 8×10^4 and added with 0.1 mM of oleic acid for 24-hour culturing. After the replacement of culture medium containing oleic acid, 10 nM of Compound A and 10 nM of Compound C were individually added to different DMEMs for culturing for 24 hours, and four repetitions were performed for both Compound A and Compound C. ORO staining was used to confirm the level of lipid droplets in HepG2, and their number and size were quantified by Image J.

HuH-7 cells = test: as above; type: cell-based, human
Method: as §4, with “Another human hepatocellular carcinoma cell line HuH-7 was used to test the temporal effect of Compound A to further confirm the effect of Compound A on intracellular lipid droplets. Similar” for “Similar”, “2,” for “1,”, “HuH-7” for “HepG2”, “HuH-7,” for “HepG2,”

Row | SMILES | liver appearance (size) [1] | aspartate transaminase (AST) and alanine transaminase (ALT) compared with Group 2 [2] | ALT [2] [U/L] | AST [2] [U/L] | GLU [2] [mg/dL] | T-CHO [2] [mg/dL] | TG [2] [mg/dL] | percentage of area of lipid droplets relative to the total field of view in liver tissue [3] | percentage of collagen proportionate area (CPA) in liver tissue [4] | lipid droplet accumulation (HepG2 cells) | further results
1 | CCCCCCCCCCCCCCCC(=O)OCC(COP(=O)(O)OCCNC(=O)[C@H](C)NC(=O)CC[C@@H](NC(=O)[C@H](C)NC(=O)C(C)O[C@H]1[C@H](O)[C@@H](CO)OC(O)[C@@H]1NC(C)=O)C(N)=O)OC(=O)CCCCCCCCCCCCCCC (stereo partly shown) [Compound B] | smaller livers than Group 2 | significantly lower | 185.4 ± 83.1 | 191.3 ± 74.0 | 274.4 ± 31.0 | 234.0 ± 33.6 | 42.2 ± 18.9 | much lower percentage of area of lipid droplets relative to the total field of view than Group 2 | much lower percentage of collagen proportionate area than Group 2 |  | average liver weight [1]: less than Group 2; ratio of liver weight to body weight (average liver weight percentage) [1]: smaller average liver weight percentage than Group 2; alleviating accumulation of hepatic fat induced by high fat diet, comparison of the compounds ([3]; Group 4 compared with Group 3): more effective than Compound A; alleviating liver fibrosis complicated with fatty liver, comparison of the compounds ([4]; Group 4 compared with Group 3): more effective than Compound A
2 | CCCCOC(=O)[C@@H](CCC(N)=O)NC(=O)[C@H](C)NC(=O)[C@@H](C)OC1C(NC(C)=O)[C@@H](O)OC(CO)[C@H]1O (stereo partly shown) [Compound C] |  |  |  |  |  |  |  |  |  | reduced significantly | 
3 | CC(=O)N[C@@H]1[C@@H](O[C@H](C)C(=O)N[C@@H](C)C(=O)N[C@H](CCC(=O)O)C(N)=O)[C@H](O)[C@@H](CO)O[C@H]1O [Compound A] | smaller livers than Group 2 | significantly lower | 240.5 ± 83.1 | 200.0 ± 68.4 | 287.2 ± 60.0 | 225.3 ± 53.2 | 30.1 ± 9.8 | much lower percentage of area of lipid droplets relative to the total field of view than Group 2 | much lower percentage of collagen proportionate area than Group 2 | reduced significantly | treatment time after which significant reduction of lipid droplets is observed (HepG2 cells; HepG2, 10 μg/mL): 4 h; treatment time at which maximum reduction of lipid droplets occurs (HepG2 cells; HepG2, 10 μg/mL): 8 h; number and size of lipid droplets (HepG2 cells; HepG2, 10 μg/mL compound for 4, 8, 16 and 24 hours): decrease with the increase of treatment time of Compound A in a time-dependent manner; number and size of lipid droplets (HepG2 cells; HepG2, 0.1 mM oleic acid 24 h, then 0.5-10 μg/mL compound for 8 hours): decrease with the increase of Compound A concentration in a dose-dependent manner; treatment time after which significant reduction of lipid droplets is observed (HuH-7 cells; HuH-7, 10 μg/mL): 4 h; treatment time at which maximum reduction of lipid droplets occurs (HuH-7 cells; HuH-7, 10 μg/mL): 16 h; number and size of lipid droplets (HuH-7 cells; HuH-7, 10 μg/mL compound for 4, 8, 16 and 24 hours): decrease with the increase of treatment time of Compound A in a time-dependent manner
